The values below come from article PMC8297771 (PLoS Pathogens, 2021).

The test system of data set [1] is HIV-1NL4-3. The data set is described as follows: In vitro anti-viral assay in human PBMCs (RT activity readout). The data set is classed as cell-based. The procedure: For the assay with human PBMCs, PHA stimulated cells from at least two pooled healthy were infected with HIV-1 strains in 96-well plates. Test drug dilutions, which were prepared at a 2X concentration in microtiter tubes and 100 μL of each concentration (nine total concentrations), were placed in appropriate wells using the standard format. 50 μL of a predetermined dilution of virus stock was placed in each test well (final MOI ≅ 0.1). The PBMC cultures were maintained for 7 days following infection at 37 °C, 5% CO2. After this period, cell-free supernatant samples were collected for analysis of reverse transcriptase (RT) activity. All assays were conducted in triplicates. For RT assay, a microtiter plate-based reverse transcriptase (RT) reaction was utilized (Buckheit et al., AIDS Research and Human Retroviruses 7:295–302, 1991). Tritiated thymidine triphosphate (^3H-TTP, 80 Ci/mmol, NEN) is received in 1:1 dH2O: Ethanol at 1 mCi/mL. Poly rA:oligo dT template:primer (GE Healthcare) was prepared as a stock solution by combining 150 μL poly rA (20 mg/mL) with 0.5 mL oligo dT (20 units/mL) and 5.35 mL sterile dH2O followed by aliquoting (1.0 mL) and storage at—20°C. The RT reaction buffer was prepared fresh on a daily basis and consisted of 125 μL 1.0 M EGTA, 125 μL dH2O, 125 μL 20% Triton X100, 50 μL 1.0 M Tris (pH 7.4), 50 μL 1.0 M DTT, and 40 μL 1.0 M MgCl2. The final reaction mixture was prepared by combining 1 part ^3H-TTP, 4 parts dH2O, 2.5 parts poly rA:oligo dT stock and 2.5 parts reaction buffer. Ten microliters of this reaction mixture were placed in a round bottom microtiter plate and 15 μL of virus containing supernatant is added and mixed. The plate was incubated at 37°C for 60 mins. Following incubation, the reaction volume was spotted onto DE81 filter-mats (Wallac), washed 5 times for 5 mins each in a 5% sodium phosphate buffer or 2X SSC (Life Technologies). Next they were washed 2 times for 1 min each in distilled water, 2 times for 1 min each in 70% ethanol, and then dried. Incorporated radioactivity (counts per min, CPM) was quantified using standard liquid scintillation techniques. These PBMC analysis was conducted by fee to service through Southern Research Institute (Frederick, MD, USA). The IC50 were analyzed using GraphPad Prism (Version 9) and presented as means ± S.D. of the triplicates.

The test system of data set [2] is HIV-1 NL4-3. The data set is described as follows: In vitro anti-viral assay in MT4 cells. The format is cell-based.
Data set [3] concerns HIV-1 GFP vector produced from treated 293T cells, transduced into Jurkat cells. Put plainly: HIV-1 inhibition in producing cells (late stage). The format is cell-based. To be noted: 60 nM in 293T producing cells; GFP by FACS in Jurkat cells. On the procedure:
(§1) To test for STP0404’s inhibitory effects during the late stage of HIV-1 life cycle such as the maturation step, we employed the “producing cells” setup. In T75 tissue culture flasks, 293T cells were pre-treated with and without STP0404 (0 and 60 nM) for 2 hrs prior to transfection with pD3-HIV (13 μg) and pVSV-g (6 μg), using 0.3 mg/ml polyethylenimine. After 24 hrs incubation at 37°C, the supernatant was removed and replaced with fresh media with and without STP0404 (0 and 60 nM). 48 hrs later, D3-HIV vector from each treatment group was concentrated from the collected supernatant via ultracentrifugation (22,000 rpm for 2 hrs). Following p24 quantification, using 96-well plates, similar amount of respective D3-HIV vector was used to transduce Jurkat cells in triplicates for 48 hrs. The cells were harvested and fixed with 3.7% formaldehyde before being analyzed for GFP expression using FACS (Miltenyi Biotec, VYB). Separately, the “infecting cells” setup was used to investigate the inhibitory effects of STP0404 against the early stages of HIV-1 life cycle such as the integration and transcription steps. […] All data were analyzed using GraphPad Prism (Version 9). Unpaired t tests were performed to determine the significance of the readings in respective experimental set up relative to the untreated controls. […]

The test system of data set [4] is HIV-1 GFP vector in pre-treated Jurkat cells. The data set is described as follows: HIV-1 inhibition in infecting cells (early stage). The data set is classed as cell-based. The settings on record: 60 nM in Jurkat cells; vector from untreated 293T cells. On the procedure: as §1
Data set [5] deals with cytochrome P450 enzymes. Put plainly: Cytochrome P450 inhibition assay in human liver microsomes. The format is in vitro ADME. The settings on record: 8 different cytochrome P450 enzymes. The procedure:
The final concentrations of test article in incubation system were 0, 0.15, 0.5, 1.5, 5, 15 and 50 μM. The inhibition of CYP1A2, 2B6, 2C8, 2C9, 2C19, 2D6, and 3A4 in human liver microsomes was measured as the percentage decrease in the activity of marker metabolite formation compared to non-inhibited controls (= 100% activity). The rate of formation of isoform-specific metabolites derived from marker substrates were measured by UPLC-MS/MS. The IC50 values were calculated with the metabolites decrease percentages of test samples to vehicle samples. All incubations were performed in triplicate (Pharmaron, China).
On the technique in general: Liver microsomes are vesicles of endoplasmic reticulum, rich in cytochrome P450 enzymes.

Data set [6] in a line: In vivo pharmacokinetics in beagle dogs. To be noted: male, plasma, Dog. The procedure: (§2) Study design: […]). Group 1 was dosed with STP0404 at 1 mg/kg by single intravenous administration. Groups 2 to 4 were dosed with STP0404 at 20, 40 and 80 mg/kg, respectively, by single oral administration. The vehicle used for IV study was DMSO: PEG400: […] Blood samples were collected at 0.0833, 0.25, 0.5, 1, 2, 4, 8, 12 (only for PO groups) and 24 hrs post-dose for Groups 1 to 4. STP0404 concentrations in plasma samples were determined by LC-MS/MS. Preclinical Dog pharmacokinetics study (Study no. 400751-2015020201-DPK): A total of 6 male Beagle dogs were divided into two groups (3 animals/group). Following single STP0404 2 mg/kg oral and intravenous administration to Beagle Dogs, STP0404 concentration was determined in plasma, and pharmacokinetic parameters were calculated. […] The concentrations of STP0404 in plasma were determined by using a LC/MS/MS method.

Data set [7] is described as follows: In vivo pharmacokinetics, summary over rats and dogs. To be noted: Sprague-Dawley (rat), beagle (dog), plasma, range over rats and dogs. On the set-up: species or system SD rats and beagle dogs. The procedure:
as §2

Bounds are passed on as bounds.

In general, IC50 refers to the concentration that inhibits the measured activity by half. A high value points to weaker potency. The AUC is the area under the concentration-time curve, a measure of exposure. A low value points to less exposure. A word on the Cmax: it is the peak of the concentration-time curve. For orientation: bioavailability means the share of a dose that reaches the circulation, judged against a reference dose that is usually intravenous.

In the case of `Cc1nc2c(c(C)c(C)n2Cc2cnn(C)c2)c(-c2ccc(Cl)cc2)c1[C@H](OC(C)(C)C)C(=O)O` [STP0404], the IC50 in data set [1] (Human immunodeficiency virus 1, NL43, PBMC) turned out to be 0.41 ± 0.43 nM; in data set [2] (Human immunodeficiency virus 1, NL43, MT4), 1.66 ± 0.32 nM. Further, the “TI (TC50 / IC50)” value was >24,000 in data set [1] (human PBMCs, NL4-3, minimal TI from IC50 and 10 μM); > 6,020 in data set [2] (HIV-1 NL4-3 / MT4 cells). Also, the “transduction efficiency, producing cells” value in data set [3] is “significantly reduced transduction efficiency”. For the same molecule, the “transduction efficiency, infecting cells” value in data set [4] was “no reduction in transduction efficiency”. In addition, the “inhibition of cytochrome P450 enzymes (in words)” value in data set [5] is “low (high μM) or no inhibition (NI)”. The AUC in data set [6] (iv, 2 mg/kg (i.v)) is 9.26 µM·h; in data set [6] (po, 2 mg/kg (p.o)) it was 4.68 µM·h. For the same molecule, the half-life in data set [6] (iv, 2 mg/kg (i.v)) is 6.11 h; in data set [6] (po, 2 mg/kg (p.o)), 6.9 h; in data set [7] (intravenous, oral, read-out: half-life (T1/2)) it was 3 to 7 h. The Cmax in data set [6] (po, 2 mg/kg (p.o)) was determined as 3.98 µM. The bioavailability in data set [6] (po, 2 mg/kg (p.o), read-out: Ft (oral bioavailability)) was 50.6%; in data set [7] (po, read-out: oral bioavailability (Ft)), 50 to 93%.
